Columns and labels:
[1] = system: ASNase treated CCRF-CEM cells; test: CCRF-CEM ASNase cell proliferation assay, phenotypic assay for cellular inhibition of GCN2; type: cell-based; conditions: Homo sapiens, 1 mU/mL ASNase, 72 h, resazurin
Protocol: CCRF-CEM ASNase Cell Proliferation Assay, a Phenotypic Assay for Cellular Inhibition of GCN2.
CCRF-CEM leukemia cells (catalog #CCL-116) were obtained from the American Type Culture Collect (ATTC, Manassas, VA). Cells were grown in RPMI-1640 medium supplemented with 10% heat-inactivated fetal bovine serum (Invitrogen, Carlsbad, CA) and 1% Penicillin/Streptomycin/L-Glutamine at 37° C., 5% CO2, and 95% humidity. Cells were expanded until reaching one million cells per mL at which time they are subcultured or harvested for assay use. Ten thousand cells per well in 200 μL RPMI-1640 supplemented with 10% heat-inactivated fetal bovine serum and 1% Penicillin/Streptomycin were dispensed into a 96-well black clear bottom plate. A serial dilution of test compound and 1 mU/mL ASNase was added in triplicate and plates were incubated for 72 h at 37° C., 5% CO2, and 95% humidity. At the end of the incubation, 40 μL of a […] solution of resazurin (Sigma, St. Louis, MO) in PBS was added to each well of the plate and plates were incubated for an additional 6 h at 37° C., 5% CO2, and 95% humidity. Plates were read on a Synergy2 or equivalent reader (Biotek, Winooski VT) using an excitation of 540 nm and an emission of 600 nm. Data was analyzed using GraphPad Prism software (GraphPad, San Diego, CA) to calculate IC50 values.

GCN2 kinase = biological target: T1, GCN2 kinase (Homo sapiens, UniProt Q9P2K8); test: Biochemical assay for GCN2 (TR-FRET kinase activity assay); conditions: 2 nM GCN2, 1 mM ATP, 3-hour incubation
T1 construct: G556E with a; purchased Carna Biosciences
Protocol: Biochemical assay for GCN2
Activity of GCN2 kinase was determined using a TR-FRET kinase activity assay (e.g., Analytical Biochemistry, 2006, 356, 108-116). Assays were conducted in 384-well plates (13 μL assay volume) using 2 nM GCN2 (Carna Biosciences), 130 nM GFP-EIf2α (Invitrogen), 0.2 mg/mL E. coli tRNA (sigma) and 1 mM ATP in kinase buffer (Invitrogen). Inhibition of GCN2 was measured by adding serial diluted test compound (final assay concentration of 0.5% DMSO) followed by a 3-hour incubation. Tb-peIF2α (pSer52) antibody (Invitrogen) (2 nM final assay concentration) in kinase buffer containing EDTA (final assay concentration of 20 mM) was added. After a 60 min incubation at room temperature, TR-FRET was monitored using an excitation wavelength of 340 nm and emission wavelengths of 490 nm and 520 nm. The emission ratio (520/490) at each compound concentration of was converted to percent inhibition using controls (i.e., reaction with no test compound and reaction with a known inhibitor) and IC50 values were calculated by fitting a four-parameter sigmoidal curve to the data using Prism (GraphPad software).

[2] = system: ATF4 in Thapsigargin stimulated CCRF-CEM cells; test: CCRF-CEM TG ATF4 ELISA, phenotypic assay for cellular inhibition of PERK preactivated by thapsigargin; type: cell-based; conditions: Homo sapiens, 3 h, compound three hours then 1 μM thapsigargin for an additional hour
Protocol: CCRF-CEM TG ATF4 ELISA, a Phenotypic Assay for Cellular Inhibition of PERK Preactivated by Thapsigargin (TG)
CCRF-CEM leukemia cells (catalog #CCL-116) were obtained from the American Type Culture Collection (ATTC, Manassas, VA). Briefly, cells were grown in RPMI-1640 medium supplemented with 10% heat-inactivated fetal bovine serum (Invitrogen, Carlsbad, CA) and 1% Penicillin/Streptomycin/L-Glutamine at 37° C., 5% CO2, and 95% humidity. Cells were expanded until reaching one million cells per mL at which time they were subcultured or harvested for assay use. One million five hundred thousand cells per well in 1 mL complete growth medium were dispensed into 12-well plates and incubated overnight. A serial dilution of test compound was added and cells were incubated at 37° C., 5% CO2, and 95% for three hours, then 1 μM thapsigargin was added and cells were incubated for an additional hour at 37° C., 5% CO2, and 95%. Cells were lysed then ATF4 levels were measured using an ELISA assay (Proteintech, Rosemont, IL). Absorbance was measured at 450 nm and 544 nM using a Synergy2 or equivalent reader (Biotek, Winooski VT). Data was analyzed using PRISM software (Graphpad, San Diego, CA) to calculate IC50 values.

PERK kinase = biological target: T2, PERK kinase (Homo sapiens, UniProt Q9NZJ5, A704S); test: Biochemical assay for PERK (coupled pyruvate kinase/lactate dehydrogenase assay); conditions: 10 nM PERK, 1 mM ATP, reaction rate 2-3 h time frame, 30° C.
T2 construct: GST (with thrombin site LVPRGS); purchased Beryllium
T2 sequence (Q9NZJ5 with tags, fused parts or gaps A704S): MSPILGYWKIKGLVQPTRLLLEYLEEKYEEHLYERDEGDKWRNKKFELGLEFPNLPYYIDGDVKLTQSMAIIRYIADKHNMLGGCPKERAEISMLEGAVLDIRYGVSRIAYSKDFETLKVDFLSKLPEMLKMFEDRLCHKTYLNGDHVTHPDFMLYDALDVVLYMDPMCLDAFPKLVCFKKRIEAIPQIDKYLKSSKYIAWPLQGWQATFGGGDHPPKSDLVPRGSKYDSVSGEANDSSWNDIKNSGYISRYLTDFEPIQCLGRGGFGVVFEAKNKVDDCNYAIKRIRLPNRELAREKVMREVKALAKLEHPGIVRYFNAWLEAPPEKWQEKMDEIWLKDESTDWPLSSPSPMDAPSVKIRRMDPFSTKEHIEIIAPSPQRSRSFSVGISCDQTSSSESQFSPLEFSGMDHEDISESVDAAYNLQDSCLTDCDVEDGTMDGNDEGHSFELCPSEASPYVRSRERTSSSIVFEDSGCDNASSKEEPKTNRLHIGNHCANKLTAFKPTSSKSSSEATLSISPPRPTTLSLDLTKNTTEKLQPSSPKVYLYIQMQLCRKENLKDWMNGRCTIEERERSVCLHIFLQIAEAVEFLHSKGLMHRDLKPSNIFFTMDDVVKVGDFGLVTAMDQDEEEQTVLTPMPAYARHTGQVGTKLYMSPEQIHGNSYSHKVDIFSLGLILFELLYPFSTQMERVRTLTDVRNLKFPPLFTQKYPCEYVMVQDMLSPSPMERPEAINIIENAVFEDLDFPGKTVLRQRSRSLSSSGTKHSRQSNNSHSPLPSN
Protocol: Biochemical Assay for PERK
Activity of PERK kinase was determined spectroscopically using a coupled pyruvate kinase/lactate dehydrogenase assay that continuously monitors the ATP hydrolysis-dependent oxidation of NADH (Science, 2000, 289, 1938-1942). Assays were conducted in 384-well plates (100 μL final volume) using 10 nM PERK (from Beryllium), 0.25 mg/mL Myelin Basic Protein substrate, 1.5 units pyruvate kinase, 2.1 units lactate dehydrogenase, 1 mM phosphoenol pyruvate, 0.28 mM NADH and 1 mM ATP in assay buffer (100 mM Tris, pH 7.5, 15 mM MgCl2, 0.5 mM DTT, 0.004% (w/v) BSA, and 0.004% Triton X-100). Inhibition of PERK was measured by adding serial diluted test compound (final assay concentration of 1% DMSO). A decrease in absorption at 340 nm was monitored continuously for 6 hours at 30° C. on a multi-mode microplate reader (BioTek). The reaction rate was calculated using the 2-3 h time frame. The reaction rate at each concentration of compound was converted to percent inhibition using controls (i.e., reaction with no test compound and reaction with a known inhibitor) and IC50 values were calculated using software routines in Prism (GraphPad software).

SMILES | IC50 [1] [µM] | IC50 (GCN2 kinase) [µM] | IC50 [2] [µM] | IC50 (PERK kinase) [µM]
CCCC(=O)OCc1cc(Cl)cc(S(=O)(=O)Nc2cccc(-c3nc(C)n4ccnc(N)c34)c2F)c1Cl [Example 33] | 0.1 to 0.5 | 1 to 10 | 0.1 to 0.5 | 0.5 to 1
COc1c(CO)cc(Cl)cc1S(=O)(=O)Nc1cccc(-c2nc(C)n3ccnc(N)c23)c1F [Example 11] | 1 to 10 | 1 to 10 | 0.5 to 1 | 0.1 to 0.5
CCC(=O)OCc1cc(Cl)cc(S(=O)(=O)Nc2cccc(-c3nc(C)n4ccnc(N)c34)c2F)c1Cl [Example 32] | 1 to 10 |  | 1 to 10 | 0.5 to 1
Cn1cc(-c2cccc(NS(=O)(=O)c3ccc(Cl)c(CO)c3F)c2F)c2c(N)ncnc21 [Example 5] | 1 to 10 | 1 to 10 | 1 to 10 | 0.5 to 1
Cc1c(CO)cc(F)cc1S(=O)(=O)Nc1cccc(-c2nc(C)n3ccnc(N)c23)c1F [Example 6] | 1 to 10 | 1 to 10 | 1 to 10 | ≤ 0.1
CCNc1nc(-c2cccc(NS(=O)(=O)c3cc(Cl)cc(CO)c3Cl)c2F)c2c(N)nccn12 [Example 27] | 0.1 to 0.5 | ≤ 0.1 | 0.1 to 0.5 | ≤ 0.1
Cn1cc(-c2cccc(NS(=O)(=O)c3ccc(F)c(CO)c3Cl)c2F)c2c(N)ncnc21 [Example 24] | 1 to 10 | 1 to 10 | 1 to 10 | 0.1 to 0.5
COC(=O)c1cccc(S(=O)(=O)Nc2cccc(-c3cn(C)c4ncnc(N)c34)c2F)c1Cl [Example 39] | 1 to 10 | 1 to 10 | 1 to 10 | 0.1 to 0.5
Cn1cc(-c2cccc(NS(=O)(=O)c3cc(Cl)cc(Br)c3Cl)c2F)c2c(N)ncnc21 [Example 42] | 1 to 10 | 0.1 to 0.5 | 1 to 10 | ≤ 0.1
COc1ncc(Cl)cc1S(=O)(=O)Nc1cccc(-c2cn(C)c3ncnc(N)c23)c1F [Example 45, N-(3-(4-amino-7-methyl-7H-pyrrolo[2,3-d]pyrimidin-5-yl)-2-fluorophenyl)-5-chloro-2-methoxypyridine-3-sulfonamide] | 1 to 10 | 1 to 10 | 0.1 to 0.5 | ≤ 0.1
COc1cc(Cl)c(S(=O)(=O)Nc2cccc(-c3cn(C)c4ncnc(N)c34)c2F)cc1Cl [Example 41] | 1 to 10 | 1 to 10 | 0.1 to 0.5 | ≤ 0.1
CO/N=C\c1cc(Cl)cc(S(=O)(=O)Nc2cccc(-c3cn(C)c4ncnc(N)c34)c2F)c1Cl [Example 53] | 1 to 10 | 1 to 10 | 1 to 10 | ≤ 0.1
COCCNc1nc(-c2cccc(NS(=O)(=O)c3cc(Cl)cc(CO)c3Cl)c2F)c2c(N)nccn12 [Example 23] | 0.1 to 0.5 | 0.1 to 0.5 | 0.1 to 0.5 | ≤ 0.1
COc1cc(F)c(S(=O)(=O)Nc2cccc(-c3cn(C)c4ncnc(N)c34)c2F)cc1Cl [Example 37] | 0.5 to 1 | 0.1 to 0.5 | 0.1 to 0.5 | ≤ 0.1
CNCc1cc(Cl)cc(S(=O)(=O)Nc2cccc(-c3cn(C)c4ncnc(N)c34)c2F)c1Cl [Example 50] | 1 to 10 | 1 to 10 | 1 to 10 | 0.5 to 1
COCc1cc(Cl)cc(S(=O)(=O)Nc2cccc(-c3nc(C)n4ccnc(N)c34)c2F)c1Cl [Example 48, N-(3-(8-amino-3-methylimidazo[1,5-a]pyrazin-1-yl)-2-fluorophenyl)-2,5-dichloro-3-(methoxymethyl)benzenesulfonamide] | 1 to 10 | 0.5 to 1 | 1 to 10 | ≤ 0.1
CC(=O)OCc1cc(Cl)cc(S(=O)(=O)Nc2cccc(-c3nc(C(C)(C)C)n4ccnc(N)c34)c2F)c1Cl [Example 30] | 1 to 10 | 1 to 10 | 1 to 10 | 0.1 to 0.5
Cc1nc(-c2cccc(NS(=O)(=O)c3cc(Cl)cc(CO)c3F)c2F)c2c(N)nccn12 [Example 7] | 1 to 10 | 0.5 to 1 | 1 to 10 | ≤ 0.1
Cn1cc(-c2cccc(NS(=O)(=O)c3ccc(Br)c(C(F)(F)F)c3)c2F)c2c(N)ncnc21 [Example 36] | 1 to 10 | 1 to 10 | 1 to 10 | 0.1 to 0.5
COc1ncc(Cl)cc1S(=O)(=O)Nc1cc(F)c(F)c(-c2nc(C)n3ccnc(N)c23)c1 [Example 28] | 1 to 10 | 1 to 10 | 1 to 10 | 0.5 to 1
COC(=O)c1cc(Cl)cc(S(=O)(=O)Nc2cccc(-c3cn(C)c4ncnc(N)c34)c2F)c1Cl [Example 40] | 1 to 10 | 1 to 10 | 1 to 10 | ≤ 0.1
Cc1nc(-c2cccc(NS(=O)(=O)c3cc(F)cc(CO)c3Cl)c2F)c2c(N)nccn12 [Example 8] | 0.5 to 1 | 0.5 to 1 | 0.1 to 0.5 | ≤ 0.1
CCC(C)(C)C(=O)OCc1cc(Cl)cc(S(=O)(=O)Nc2cccc(-c3nc(C)n4ccnc(N)c34)c2F)c1Cl [Example 29] | 1 to 10 | 1 to 10 | 1 to 10 | 1 to 10
Cc1nc(-c2cccc(NS(=O)(=O)c3cc(Cl)cc(COC(=O)C4CC4)c3Cl)c2F)c2c(N)nccn12 [Example 31] | 1 to 10 | 1 to 10 | 1 to 10 | 1 to 10
Cc1nc(-c2cccc(NS(=O)(=O)c3cc(F)cc(CO)c3F)c2F)c2c(N)nccn12 [Example 15] | 1 to 10 | 1 to 10 | 1 to 10 | 0.1 to 0.5
Cn1cc(-c2cccc(NS(=O)(=O)c3cc(Cl)cc(CN)c3Cl)c2F)c2c(N)ncnc21 [Example 49] | 1 to 10 | 1 to 10 | 0.5 to 1 | 0.1 to 0.5
Cn1cc(-c2cccc(NS(=O)(=O)c3cc(CO)c(F)cc3F)c2F)c2c(N)ncnc21 [Example 10] | 1 to 10 | 1 to 10 | 1 to 10 | 0.1 to 0.5
COc1ccc(S(=O)(=O)Nc2cccc(-c3cn(C)c4ncnc(N)c34)c2F)cc1Cl [Example 44] | 1 to 10 | 1 to 10 | 0.5 to 1 | ≤ 0.1

Reference: patent publication US20260226069A1, “GCN2 AND PERK KINASE MODULATORS AND METHODS OF USE THEREOF” (Deciphera Pharmaceuticals, LLC, priority 2023, published 2026)
